Measurements: article PMC11855827, “High-Throughput Screening of Five Compound Libraries for Anthelmintic Activity and Toxicity Leads to the Discovery of Two Flavonoid Compounds” (International Journal of Molecular Sciences, 2025)
Where two headings read alike, the source gives them in different places. *1 amine or outer side, *2 acyl side, *3 side chain or, on linkers, in order; H or OH if unused. Where a SMILES comes first, the peptide text is derived from it. Bridges are numbered along the chain shown (N, C = ends). [ ]: non-standard residue; d: D form. The star is where a group is joined. pTerphenylCO(4''-OnC5H11) = CCCCCOc1ccc(-c2ccc(-c3ccc(C(=O)*)cc3)cc2)cc1; Orn(4R-OH,5R-OH) = O=C([C@H](C[C@@H](O)[C@@H](O)N[*:3])N[*:1])[*:2]; hTyr(3S-OH,4S-OH) = N[C@H](C(=O)O)[C@H](O)[C@@H](O)c1ccc(O)cc1; Pro(3S-OH,4S-Me) = C[C@H]1CN[C@H](C(=O)O)[C@H]1O; Hyp = O=C(O)[C@@H]1C[C@@H](O)CN1

Test system: C. elegans
Experiment: microbe, parasite or virus in culture
Details: Caenorhabditis elegans
[1] = 0 h, read-out: Percentage of motility inhibition 0 h, Table S2, C. elegans SS assay, 110 μM, 0 h, averages of 4 data points
[2] = 24 h, read-out: Percentage of motility inhibition 24 h, Table S2, C. elegans SS assay, 110 μM, 24 h, averages of 4 data points
[3] = 0 h, read-out: Percentage of motility inhibition 0 h
[4] = 24 h, read-out: Percentage of motility inhibition 24 h

Compound	inhibition at 110 µM [1] [%]	inhibition at 110 µM [2] [%]	inhibition at 110 µM [3] [%]	inhibition at 110 µM [4] [%]
C[C@@H]1[C@H](O)[C@@H](C)/C=C/C=C/C=C/C=C/C=C/C=C/C=C/[C@H](O[C@@H]2O[C@H](C)[C@@H](O)[C@H](N)[C@@H]2O)C[C@@H]2O[C@](O)(C[C@@H](O)C[C@@H](O)[C@H](O)CC[C@@H](O)C[C@@H](O)CC(=O)O[C@H]1C)C[C@H](O)[C@H]2C(=O)O [Amphotericin B]	2	29	–	–
CC(C)CN(C[C@@H](O)[C@H](Cc1ccccc1)NC(=O)O[C@H]1CCOC1)S(=O)(=O)c1ccc(N)cc1 [Amprenavir]	41	34	–	–
N#C[C@H](O[C@@H]1O[C@H](CO[C@@H]2O[C@H](CO)[C@@H](O)[C@H](O)[C@H]2O)[C@@H](O)[C@H](O)[C@H]1O)c1ccccc1 [Amygdalin]	13	0	–	–
c1cncc([C@@H]2CCCCN2)c1 [Anabasine]	0	0	–	–
O=c1cccc2n1C[C@H]1C[C@@H]2CN2CCCC[C@H]12 [Anagyrine]	14	6	–	–
C=C1CC[C@@H]2[C@](C)(CO)CCC[C@@]2(C)[C@@H]1CCC1=CCOC1=O [Andrograpanin]	3	20	–	–
CCCCCOc1ccc(-c2ccc(-c3ccc(C(=O)N[C@H]4C[C@@H](O)[C@@H](O)NC(=O)[C@@H]5[C@@H](O)[C@@H](C)CN5C(=O)[C@H]([C@@H](C)O)NC(=O)[C@H]([C@H](O)[C@@H](O)c5ccc(O)cc5)NC(=O)[C@@H]5C[C@@H](O)CN5C(=O)[C@H]([C@@H](C)O)NC4=O)cc3)cc2)cc1 [Anidulafungin] ({pTerphenylCO(4''-OnC5H11)}-[Orn(4R-OH,5R-OH)]T[Hyp][hTyr(3S-OH,4S-OH)]T[Pro(3S-OH,4S-Me)]; lactam 1-C)	54	61	–	–
C[C@@H]1C[C@@H](O)[C@@]2(O)[C@@]13C[C@@H](OC(=O)[C@H]3O)[C@](C)(O)[C@@]21COC1=O [Anisatin]	0	20	–	–
O=c1cc(-c2ccc(O)cc2)oc2cc(O)cc(O)c12 [Apigenin]	12	3	–	–
O=c1cc(-c2ccc(O)cc2)oc2cc(O[C@@H]3O[C@H](CO)[C@@H](O)[C@H](O)[C@H]3O[C@@H]3OC[C@](O)(CO)[C@H]3O)cc(O)c12 [Apiin]	24	0	–	–
Cn1c(Cc2ccccc2)nc(=O)c2ccccc21 [Arborine]	0	4	–	–
OC[C@H]1O[C@@H](Oc2ccc(O)cc2)[C@H](O)[C@@H](O)[C@@H]1O [Arbutin]	0	1	–	–
C[C@@H]1O[C@@H](O[C@H]2[C@H](O[C@H]3CO[C@@H](O[C@H]4CC[C@]5(C)[C@H]6CC[C@]78OC[C@@]9(CC[C@](C)(C=O)C[C@H]97)[C@H](O)C[C@@]8(C)[C@]6(C)CC[C@H]5C4(C)C)[C@H](O[C@@H]4O[C@H](CO)[C@@H](O)[C@H](O)[C@H]4O)[C@H]3O)O[C@H](CO)[C@@H](O)[C@@H]2O)[C@H](O)[C@H](O)[C@H]1O [Ardisiacrispin B]	16	0	–	–
CC1(C)CC[C@]2(C(=O)O)CC[C@]3(C)C(=CC[C@@H]4[C@@]5(C)C[C@@H](O)[C@H](O)[C@@](C)(CO)[C@@H]5CC[C@]43C)[C@@H]2[C@@H]1O [Arjungenin]	0	36	–	–
C=C1C(=O)O[C@@]23[C@H]1CC[C@@H](C)[C@@H]2CC[C@@]1(C)O[C@@H]31 [Arteannuin B]	13	11	–	–
C=C1C(=O)O[C@@H]2O[C@@]3(C)CC[C@H]4[C@H](C)CC[C@@H]1[C@@]24OO3 [Artemisitene]	0	9	–	–
CC[C@@H]1/C=C(\C)C[C@H](C)C[C@H](OC)[C@H]2O[C@@](O)(C(=O)C(=O)N3CCCC[C@H]3C(=O)O[C@H](/C(C)=C/[C@@H]3CC[C@@H](O)[C@H](OC)C3)[C@H](C)[C@@H](O)CC1=O)[C@H](C)C[C@@H]2OC [Ascomycin]	6	0	–	–
C[C@H]1[C@H](C)CC[C@]2(C(=O)O)CC[C@]3(C)C(=CC[C@@H]4[C@@]5(C)C[C@@H](O)[C@H](O)[C@@](C)(CO)[C@@H]5CC[C@]43C)[C@H]12 [Asiatic acid]	41	55	–	–
C[C@@H]1O[C@@H](O[C@H]2[C@H](O)[C@@H](O)[C@H](OC[C@H]3O[C@@H](OC(=O)[C@]45CCC(C)(C)C[C@H]4C4=CC[C@@H]6[C@@]7(C)C[C@@H](O)[C@H](O)[C@@](C)(CO)[C@@H]7[C@H](O)C[C@@]6(C)[C@]4(C)CC5)[C@H](O)[C@@H](O)[C@@H]3O)O[C@@H]2CO)[C@H](O)[C@H](O)[C@H]1O [Asiaticoside B]	0	5	–	–
CC(=O)OCC1=C[C@@H]2OC(=O)C3=CO[C@@H](O[C@@H]4O[C@H](CO)[C@@H](O)[C@H](O)[C@H]4O)[C@H]1[C@@H]32 [Asperuloside]	0	5	–	–
CC(=O)OCC1=C[C@H](O)[C@@H]2C(C(=O)O)=CO[C@@H](O[C@@H]3O[C@H](CO)[C@@H](O)[C@H](O)[C@H]3O)[C@H]12 [Asperulosidic Acid]	2	0	–	–
C[C@@H]1O[C@@H](O[C@H]2C(=O)c3c(O)cc(O)cc3O[C@@H]2c2ccc(O)c(O)c2)[C@H](O)[C@H](O)[C@H]1O [Astilbin]	–	–	31	0

Compound	inhibition at 110 µM [1] [%]	inhibition at 110 µM [2] [%]	inhibition at 110 µM [3] [%]	inhibition at 110 µM [4] [%]
O=c1c(O[C@@H]2O[C@H](CO)[C@@H](O)[C@H](O)[C@H]2O)c(-c2ccc(O)cc2)oc2cc(O)cc(O)c12 [Astragalin]	1	1	–	–
O=C1C(O)=C([C@H]2CC[C@H](c3ccc(Cl)cc3)CC2)C(=O)c2ccccc21 [Atovaquone]	18	2	–	–
C=C1CCC[C@]2(C)C[C@]3(O)OC(=O)C(C)=C3C[C@@H]12 [Atractylenolide III]	3	6	–	–
C=C1CCC[C@]2(C)C[C@@H]3OC(=O)C(C)=C3C[C@@H]12 [Atractylenolide II]	10	2	–	–
OCC1=C[C@@H](O)[C@@H]2C=CO[C@@H](O[C@@H]3O[C@H](CO)[C@@H](O)[C@H](O)[C@H]3O)[C@H]12 [Aucubin]	10	19	–	–
O=c1c(O[C@@H]2O[C@@H](CO)[C@H](O)[C@H]2O)c(-c2ccc(O)c(O)c2)oc2cc(O)cc(O)c12 [Avicularin]	33	21	–	–
COc1cc(O)c2c(=O)c(OC)c(-c3ccc(OC)c(O)c3)oc2c1 [Ayanin]	–	–	0	22
C/C=C(\C)C(=O)O[C@H]1C[C@@H](OC(C)=O)[C@@]2(C(=O)OC)CO[C@H]3[C@@H](O)[C@@](C)([C@]45O[C@@]4(C)[C@H]4C[C@@H]5O[C@@H]5OC=C[C@@]54O)[C@H]4[C@]1(CO[C@]4(O)C(=O)OC)[C@@H]32 [Azadirachtin]	24	4	–	–
O=C(O)CCCCCCCC(=O)O [Azelaic acid]	0	0	–	–
CC[C@H]1OC(=O)[C@H](C)[C@@H](O[C@H]2C[C@@](C)(OC)[C@@H](O)[C@H](C)O2)[C@H](C)[C@@H](O[C@@H]2O[C@H](C)C[C@H](N(C)C)[C@H]2O)[C@](C)(O)C[C@@H](C)CN(C)[C@H](C)[C@@H](O)[C@]1(C)O [Azithromycin]	23	37	–	–
Cn1c(N2CCCCS2(=O)=O)nc(C(=O)NCc2ccc(F)cc2)c(O)c1=O [BMS‐707035]	0	1	–	–
C[C@H]1COC2(CCN(c3nc(=O)c4cc(C(F)(F)F)cc([N+](=O)[O-])c4s3)CC2)O1 [BTZ043]	0	5	–	–
CC(=O)O[C@H]1C(=O)[C@@]2(C)[C@H]([C@H](OC(=O)c3ccccc3)[C@]3(O)C[C@H](O)C(C)=C1C3(C)C)[C@]1(OC(C)=O)CO[C@@H]1C[C@@H]2O [Baccatin III]	0	0	–	–
CC(C)=C[C@H]1C[C@](C)(O)[C@@H]2[C@H]3CC[C@@H]4[C@@]5(C)CC[C@H](O[C@@H]6O[C@H](CO)[C@@H](O)[C@H](O[C@@H]7O[C@H](CO)[C@@H](O)[C@H](O)[C@H]7O)[C@H]6O[C@@H]6O[C@@H](CO)[C@H](O)[C@H]6O)C(C)(C)[C@@H]5CC[C@@]4(C)[C@@]34CO[C@@]2(C4)O1 [Bacoside A3]	3	0	–	–
CNC1CCCN(c2c(F)cc3c(=O)c(C(=O)O)cn(C4CC4)c3c2OC)C1 (stereo not shown) [Balofloxacin]	0	20	–	–
COC(=O)C1=CO[C@@H](O[C@@H]2O[C@H](CO)[C@@H](O)[C@H](O)[C@H]2O)[C@H]2[C@@H]1[C@H](O)C[C@]2(C)OC(C)=O [Barlerin]	12	26	–	–
CC(C)=CCc1cc2c(cc1O)O[C@H](c1ccc(O)cc1)CC2=O [Bavachin]	27	24	–	–
NC[C@H]1O[C@H](O[C@H]2[C@H](O)[C@@H](O[C@H]3O[C@H](CO)[C@@H](O)[C@H](N)[C@H]3O)[C@H](N)C[C@@H]2N)[C@H](N)[C@@H](O)[C@@H]1O [Bekanamycin]	23	10	–	–
O=C(O)c1ccccc1 [Benzoic acid]	–	–	3	6
C[C@@]12C[C@@]3(O)O[C@@H](O1)[C@]1(COC(=O)c4ccccc4)[C@H]3C[C@@]12O[C@@H]1O[C@H](COC(=O)c2ccccc2)[C@@H](O)[C@H](O)[C@H]1O [Benzoylpaeoniflorin]	10	0	–	–
OCc1ccccc1 [Benzyl alcohol]	2	4	–	–
O=C(OCc1ccccc1)c1ccccc1 [Benzyl benzoate]	35	36	–	–
